Data as given in patent publication US8513266B2, “Methods of treating cancer using pyridopyrimidinone inhibitors of PI3K alpha” (priority 2007, dated 2013).

What was measured:
Type in all cases: in vivo
[1] = tested on: MCF7 human mammary adenocarcinoma cells; assay: MCF7 breast cancer xenograft model; conditions: MCF7 tumors at end of study, 30 mg/kg qd each agent, alone or combined
Experimental: (§1) Female and male athymic nude mice (NCr) 5-8 weeks of age and weighing approximately 20-25 g were used in the following model. Prior to initiation of a study, the animals were allowed to acclimate for a minimum of 48 h. During these studies, animals were provided food and water ad libitum and housed in a room conditioned at 70-75° F. and 60% relative humidity. A 12 h light and 12 h dark cycle was maintained with automatic timers. All animals were examined daily for compound-induced or tumor-related deaths.
MCF7 human mammary adenocarcinoma cells were cultured in vitro in DMEM (Cellgro) supplemented with 10% Fetal Bovine Serum (Cellgro), Penicillin-Streptomycin and non-essential amino acids at 37° C. in a humidified 5% CO2 atmosphere. […] A transponder was implanted into each mouse for identification and data tracking, and animals were monitored daily for clinical symptoms and survival. During the dosing period, the tumor weight of each animal was determined twice weekly and the body weight of each animal was measured daily. […]
For subcutaneous or intradermal tumors, the mean tumor weight of each animal in the respective control and treatment groups was determined twice weekly during the study. Tumor weight (TW) was determined by measuring perpendicular diameters with a caliper, using the following formula: tumor weight (mg)=[tumor volume=length (mm)×width^2 (mm^2)]/2 […]

[2] = tested on: A549 human lung carcinoma cells; assay: A549 non-small cell lung cancer xenograft model; conditions: Compound A 30 mg/kg qd
Experimental: as §1
(§2) A549 human lung carcinoma cells were cultured in vitro in DMEM (Mediatech) supplemented with 10% Fetal Bovine Serum (Hyclone), PenicilliN-Streptomycin and non-essential amino acids at 37° C. in a humidified 5% CO2 atmosphere. […] A transponder was implanted in each mouse for identification, and animals were monitored daily for clinical symptoms and survival. Body weights were recorded daily. […]
(§3) For subcutaneous or intradermal tumors, the mean tumor weight of each animal in the respective control and treatment groups was determined twice weekly during the study. Tumor weight (TW) was determined by measuring perpendicular diameters with a caliper, using the following formula: tumor weight (mg)=[tumor volume=length (mm)×width^2 (mm^2)]/2
(§4) Percent inhibition of tumor growth (TGI) is determined with the following formula: […]

[3] = tested on: Calu-6 human lung anaplastic carcinoma cells; assay: Calu-6 non-small cell lung cancer xenograft model; conditions: Calu-6 xenograft, single agents; Compound A 100 mg/kg q2d or 30 mg/kg bid oral; carboplatin 50 mg/kg i.v. q4d
Experimental: as §1
as §2, with “Calu-6” for “A549”, “lung anaplastic” for “lung”, “Penicillin-Streptomycin” for “PenicilliN-Streptomycin”, “humidified,” for “humidified”
as §3, §4

[4] = tested on: MDA-MB-468 human breast adenocarcinoma cells; conditions: MDA-MB-468 xenograft; erlotinib 100 mg/kg qd oral; Compound A 100 mg/kg q2d oral; combination of the two
Experimental: as §1, with “deaths. […]” for “deaths.”
as §3
Percent inhibition of tumor growth (TGI) is determined with the following formula:
[formula] • where X0=average TW of all tumors on group day • Xf=TW of treated group on Day f • Yf=TW of vehicle control group on Day f If tumors regress below their starting sizes, then the percent tumor regression is determined with the following formula:
[formula] Tumor size is calculated individually for each tumor to obtain a mean±SEM value for each experimental group. […]

[5] = tested on: PC-3 human prostate adenocarcinoma cells
Experimental: as §1
as §2, with “PC-3” for “A549”, “prostate adenocarcinoma” for “lung carcinoma”, “20%” for “10%”, “Penicillin-Streptomycin” for “PenicilliN-Streptomycin”
as §3, §4

## COc1cc2c(Nc3ccc(Cl)c(Cl)c3F)ncnc2cc1OC[C@@H]1C[C@@H]2CN(C)C[C@@H]2C1 [Compound B, N-(3,4-dichloro-2-fluorophenyl)-7-({[(3aR,5r,6aS)-2-methyloctahydrocyclopenta-[c]pyrrol-5-yl]methyl}oxy)-6-(methyloxy)quinazolin-4-amine]
[1]; compared to vehicle control
  induction of TUNEL-positive (apoptotic) cells: did not result in a significant induction
[1]
  decrease in CD31-positive tumor vessels (microvessel density, MVD): 31%
[2]; Compound B 30 mg/kg qd oral for 18 days, combination: Compound B followed by Compound A after about six hours
  tumor growth inhibition (TGI) (FIG. 4a): 80%
[2]; Compound B 30 mg/kg qd, alone or co-administered
  dose skipping: no dose omission

## N.N.O=C([O-])C1(C(=O)[O-])CCC1.[Pt+2] [carboplatin]
[3]
  tumor growth inhibition (FIG. 3): Significant tumor growth inhibition

## C#Cc1cccc(Nc2ncnc3cc(OCCOC)c(OCCOC)cc23)c1 [erlotinib]
[4]
  tumor growth inhibition (FIG. 5): significant but incomplete tumor growth inhibition

## CO[C@H]1C[C@@H]2CC[C@@H](C)[C@@](O)(O2)C(=O)C(=O)N2CCCC[C@H]2C(=O)O[C@H]([C@H](C)C[C@@H]2CC[C@@H](O)[C@H](OC)C2)CC(=O)[C@H](C)/C=C(\C)[C@@H](O)[C@@H](OC)C(=O)[C@H](C)C[C@H](C)/C=C/C=C/C=C/1C [rapamycin, Rapamycin]
[5]; PC-3 tumors resected at end of efficacy study, Compound A 100 mg/kg q2d, rapamycin, monotherapy or combined
  decrease in the fraction of proliferating cells (Ki67) (FIG. 6): 77%

## CC(=O)O[C@H]1C(=O)[C@@]2(C)[C@H]([C@H](OC(=O)c3ccccc3)[C@]3(O)C[C@H](OC(=O)[C@H](O)[C@@H](NC(=O)c4ccccc4)c4ccccc4)C(C)=C1C3(C)C)[C@]1(OC(C)=O)CO[C@@H]1C[C@@H]2O [taxol, Paclitaxel]
[5]; PC-3 xenograft, Compound A 100 mg/kg q2d or 30 mg/kg bid oral, taxol 7.5 mg/kg i.v. twice weekly, combination of either dose of Compound A with taxol
  tumor growth inhibition (FIG. 1): Comparable tumor growth inhibition
